We go through 13 molecules from patent US20240130367A1, “PLANT GROWTH PROMOTERS” (University of Durham, priority 2020, published 2024).

For assay [1], the system named is plant. The settings on record: known calmodulin inhibitors; cited from earlier work.
Assay [2] concerns gid1 double mutants. The experiment in a line: Hypocotyl growth assay in GA receptor gid1 double mutants. The format is in vivo, Arabidopsis thaliana. An excerpt:
(§1) Arabidopsis thaliana wild-type seeds were from laboratory stocks of Columbia (Col-0) and Landsberg erecta (Ler-0) accessions. Arabidopsis thaliana is a dicot. The mutants of gid1 (J. Griffiths, et al., Plant Cell, 2006, 18, 3399-3414) were obtained from Dr. Steve Thomas (Rothamsted Research, UK) and were in a Col-0 background, whilst the della quintuple mutant (S. H. Feng et al. Nature, 2008, 451: 475-479) and ga1-5 (I. Fridborg et al. Plant Cell, 1999, 11: 1019-1031) were in a Ler-0 background and was obtained from the Nottingham Arabidopsis Stock Centre (NASC). The A. thaliana line expressing RGA-GFP (A. L. Silverstone et al. The Plant Cell, 2001, 13: 1555-1565), Col-0 background was obtained from Prof. Keith Lindsey (Durham University, UK). […]
(§2) After growing as described above seedlings for root assays were transferred to 1.2% (w/v) agar plates containing each chemical at a final concentration of 100 μM (the addition of the chemicals was performed when media had cooled to 50° C. after autoclaving), with an equivalent concentration of DMSO as control. […] The plants were subsequently grown vertically and after a further 5 days images of the plates were scanned and the root growth that occurred during the 5 days on chemicals was measured using ImageJ software. 18 seedlings were measured for each treatment. […] At least 15 seedlings were measured for each plate. […]

Assay [3] relates to maize. The experiment in a line: Growth of a monocot on application of A1. The assay is classed as in vivo.
Assay [4] relates to Arabidopsis thaliana. Description: Fresh and dry weight measurements of treated seedlings. The assay is classed as in vivo. The settings on record: 5 days chemical treatment. The protocol:
Leaves and roots fresh weights of 12 days old seedlings, that were subjected to 5 days chemical treatment as described above, were measured. Dry weights were recorded after placing the plant material in oven at 65° C. for 3 days. The measurements were performed on 15 seedlings for each treatment.
Having discovered the root growth-promoting properties of A1, we wished to establish if the effects were limited to the roots, or whether A1 could also promote growth of shoot tissue. We were also interested to see if the effect was on fresh weight, dry weight or both. To investigate this, plants were treated with A1, divided into shoot and root material and the fresh and dry weight recorded.

Assay [5] relates to Arabidopsis thaliana wild-type. Description: Hypocotyl growth assay under reduced light. The settings on record: 100 μM; for Effect on hypocotyl growth in wild type / New Length / New length (cm): three days; for Effect on hypocotyl growth in wild type / Hypocotyl growth promotion relative to A1: reduced light; for New Length / Relative growth (cm) / New length (cm): hypocotyl; for New Length: in cm; for New length (cm): trials 1, 2, 3 and SAM each with own DMSO control. The assay is classed as in vivo. The source says:
(§3) Arabidopsis thaliana wild-type seeds were from laboratory stocks of Columbia (Col-0) and Landsberg erecta (Ler-0) accessions. Arabidopsis thaliana is a dicot. The mutants of gid1 (J. Griffiths, et al., Plant Cell, 2006, 18, 3399-3414) were obtained from Dr. Steve Thomas (Rothamsted Research, UK) and were in a Col-0 background, whilst the della quintuple mutant (S. H. Feng et al. Nature, 2008, 451: 475-479) and ga1-5 (I. Fridborg et al. Plant Cell, 1999, 11: 1019-1031) were in a Ler-0 background and was obtained from the Nottingham Arabidopsis Stock Centre (NASC). The A. thaliana line expressing RGA-GFP (A. L. Silverstone et al. The Plant Cell, 2001, 13: 1555-1565), Col-0 background was obtained from Prof. Keith Lindsey (Durham University, UK). Seeds were plated out 1×MS medium pH 5.8 (T. Murashige and F. Skoog (1962) Physiologia Plantarum 15: 473-497) in petri dishes with a concentration of either 0.8% or 1.2% (w/v) phytoagar for root and hypocotyl measurements, respectively. After sowing seeds were stratified on plates at 4° C. for a minimum of 48 h to achieve synchronous germination. Seedlings were grown for either 7 or 2 days for root and hypocotyl measurements, respectively, prior to treatment with chemicals. For hypocotyl measurements, seeds were sown on nylon mesh (acid resistant monofilament nylon filter mesh fabric; GZ, model number H20M). Seedling were grown in a Percival (CU-36L5D, CLF plant climatics, Emersacker, Germany) with a photoperiod of 16/8 h with a light intensity of either 150 μmol m^2 s^−1 or 50 μmol m^2 s^−1 for root and hypocotyl measurements, respectively, and a temperature of 20±1° C.
After growing as described above seedlings for root assays were transferred to 1.2% (w/v) agar plates containing each chemical at a final concentration of 100 μM (the addition of the chemicals was performed when media had cooled to 50° C. after autoclaving), with an equivalent concentration of DMSO as control. At this stage the positions of the root tips were marked on the petri dish. The plants were subsequently grown vertically and after a further 5 days images of the plates were scanned and the root growth that occurred during the 5 days on chemicals was measured using ImageJ software. 18 seedlings were measured for each treatment. For hypocotyl measurements the assay performed was adapted from de Lucas et al. (2008, supra). After growing seedlings as described above, the nylon mesh was transferred across to the plates containing chemical. The plants were then placed in vertical orientation for three days under reduced light intensity (by covering plates with 2 layers of 80 g·m^2 white paper) before the plates were scanned. The measurement of hypocotyl was done using ImageJ software. At least 15 seedlings were measured for each plate.
To determine the mechanism of A1 action via the GA/DELLA signaling pathway, the response of A1 in a series of GA synthesis/signalling mutants was investigated. For these assays the focus was on hypocotyl growth, because it is well established that DELLA can inhibit the binding of PIFs to their target promoter leading to a reduction in GA-regulated hypocotyl growth (A. Castillon, H. Shen and E. Huq (2007) Trends in Plant Science, 12: 514-521.; de Lucas et al. 2008, supra; S. H. Feng et al. 2008, supra. To establish the use of A1 in this assay, hypocotyl growth was first tested by growing the seedlings on agar plates containing A1, with GA and PAC used as positive and negative controls, respectively, for three days in reduced light conditions to achieve a balance between maximum and minimum hypocotyl growth. […] Having established the hypocotyl assay, DELLA-dependence of the A1 effect was then confirmed genetically. To test this, a mutant line that lacks all DELLA (GAI, RGA, RGL1, RGL2 and RGL3) function was used.
The effect of additional compounds on hypocotyl growth was investigated using the same methods as described above (100 μM of each compound was used). […]

The test system of assay [6] is ga1-5 mutant. Description: Hypocotyl growth assay in GA biosynthesis mutant ga1-5. The assay is classed as in vivo, Arabidopsis thaliana. The settings on record: 100 μM, three days.
From the text: as §1, §2

Assay [7] concerns della quintuple mutant. The experiment in a line: Hypocotyl growth assay in della quintuple mutant. The format is in vivo, Arabidopsis thaliana.
From the text: as §1, §2

The subject of assay [8] is RGA-GFP. The experiment in a line: DELLA degradation: confocal imaging of RGA-GFP fluorescence in roots. The settings on record: 100 μM; for GFP fluorescence / stability of DELLA protein in roots: A1 imaged after 2 and 24 hours, PAC applied 48 hours before. The assay is classed as in vivo, Arabidopsis thaliana.
From the text: as §3
Confocal microscopy was performed using a Leica SP5 CLSM FLIM FCCS (Leica Microsystems, Wetzlar, Germany). GFP:RGA seeds were germinated and grown on 1.2% MS vertically for 7 days, and then incubated in chemical solution (at the final concentration of 100 μM) for 2 and 24 hours before being analyzed. […] The excitation wavelength of the argon laser was 488 nm and the emission was detected using a bypass filter of 495-550 nm. […]

Assay [9] concerns Arabidopsis thaliana wild-type. The experiment in a line: Root growth assay, seedlings on agar plates containing chemical. The assay is classed as in vivo. The settings on record: 100 μM; for Root growth activity relative to A1: 7-day old seedlings, 5 days.
Procedure: Arabidopsis thaliana wild-type seeds were from laboratory stocks of Columbia (Col-0) and Landsberg erecta (Ler-0) accessions. […] Seeds were plated out 1×MS medium pH 5.8 (T. Murashige and F. Skoog (1962) Physiologia Plantarum 15: 473-497) in petri dishes with a concentration of either 0.8% or 1.2% (w/v) phytoagar for root and hypocotyl measurements, respectively. After sowing seeds were stratified on plates at 4° C. for a minimum of 48 h to achieve synchronous germination. Seedlings were grown for either 7 or 2 days for root and hypocotyl measurements, respectively, prior to treatment with chemicals. […] Seedling were grown in a Percival (CU-36L5D, CLF plant climatics, Emersacker, Germany) with a photoperiod of 16/8 h with a light intensity of either 150 μmol m^2 s^−1 or 50 μmol m^2 s^−1 for root and hypocotyl measurements, respectively, and a temperature of 20±1° C.
The effect of the A1 analogues on root and hypocotyl growth was investigated. In order to allow a direct comparison with eW5, the concentration used in these assays was 100 μM. The root growth assay was performed by treating the 7-day old seedlings on chemical plates for 5 days.
Where [10] appears, read: relative to the DMSO control of the same trial.

On to `NCCCCCCNS(=O)(=O)c1cccc2ccccc12` [Compound W5, N-(6-Aminohexyl)-1-naphthalenesulfonamide], for which the “Effect on plant growth” value in [1] is recorded as “inhibit plant growth”.
Turning to `Cl.NCCNS(=O)(=O)c1cccc2ccccc12` [eW5, 2′-Amino-1′-(1-naphthylsulfonylamino)Ethane Hydrochloric Acid Salt], the “Effect on hypocotyl length in gid1 double mutants compared with wild type” value in assay [2] is reported as “the effect was reduced in the mutants”. Further, the “Root, stem and leaf growth in maize” value in assay [3] was “Improved root, stem (hypocotyl in particular) and leaf growth”. For the same molecule, in assay [4] (12 days old seedlings), the “Fresh weight of roots and shoots” value is “increased”. Also, the “Dry:fresh weight ratio in roots and shoots” value in assay [4] (dried at 65° C. for 3 days) is listed as “increased”. Further, in assay [5], the “Effect on hypocotyl growth in wild type” value was “increased the hypocotyl length” and the “New Length” value is 0.9253. Moreover, the “Effect on hypocotyl growth in wild type” value in assay [5] (listed as A1) is given as “stimulated hypocotyl growth in a manner very similar to GA”. The “Relative growth (cm)” value in assay [5] (relative to DMSO control) stood at 0.3497. Further, in assay [6], the “Recovery of hypocotyl elongation in ga1-5” value is recorded as “could not recover hypocotyl elongation”. In addition, the “Effect on hypocotyl growth in mutant lacking all DELLA function” value in assay [7] was “no promotion of hypocotyl growth was observed”. Further, in [8], the “Time after which the DELLA degradation response could be observed” value was found to be 2 h and the “GFP fluorescence / stability of DELLA protein in roots” value was “reduced GFP fluorescence”. Also, the “Effect on root growth compared to DMSO control” value in assay [9] (5 days on chemical) is recorded as “promoted root growth”.
Consider `Cl.NCCNS(=O)(=O)Cc1ccccc1` [Compound E3, Alpha-toluenesulfonylethylene Diamine Hydrochloric Acid Salt], for which the “Hypocotyl growth promotion relative to A1” value in assay [5] was “less hypocotyl growth promotion relative to A1”. Further, the “Root growth activity relative to A1” value in assay [9] was “higher activity than A1”.
For `Cc1ccc(CS(=O)(=O)NCCN)cc1.Cl` [Compound E4, Alpha-p-xylenesulfonylethylene Diamine Hydrochloric Acid Salt] the same measures were “less hypocotyl growth promotion relative to A1” and “higher activity than A1”.
With `NCCCCCCNS(=O)(=O)c1cccc2c(Cl)cccc12` [Compound W7, N-(6-Aminohexyl)-5-chloro-1-naphthalenesulfonamide], the “Effect on plant growth” value in [1] is reported as “inhibit plant growth”.
For the molecule `COc1ccc(S(=O)(=O)NCCN)c2ccccc12.Cl` [JAR33, N-(2′-aminoethyl)-4-methoxynaphthalene-1-sulfonamide Hydrogen Chloride], the “New length (cm)” value in assay [5] amounted to 0.2986 cm. In assay [5] (setting [10]), the “Relative growth (cm)” value is reported as 0.2705.
For `COc1cccc(S(=O)(=O)NCCN)c1.Cl` [JAR490, N-(2′-aminoethyl)-3-methoxybenzene-1-sulfonamide Hydrochloride], the “New Length” value in [5] was determined as 0.8299. For the same molecule, the “Relative growth (cm)” value in assay [5] (relative to DMSO control) was 0.2107.
As for `Cc1ccc(S(=O)(=O)NCCN)cc1.Cl` [JAR142, 4-methyl-N-(2′-aminoethyl)benzene-1-sulfonamide Hydrogen Chloride], in assay [5], the “New length (cm)” value is reported as 0.5868 cm. Besides, the “Relative growth (cm)” value in assay [5] (setting [10]) turned out to be 0.4584.
For `CNc1ccc(S(=O)(=O)NCCN)c2nonc12.Cl` [JAR143, 7-(methylamino)-N-(2′-aminoethyl)-2,1,3-benzoxadiazole-4-sulfonamide Hydrogen Chloride] the same measures were 0.2847 cm and −0.2925.
`CC(C)(C)[C@@H](O)[C@@H](Cc1ccc(Cl)cc1)n1cncn1` (racemic) [PAC, paclobutrazol, reference compound]: the “GFP fluorescence / stability of DELLA protein in roots” value in assay [8] was “stabilized the DELLA protein”.
For the molecule `Cl.NCCN(Cc1ccccc1)S(=O)(=O)c1cccc2ccccc12` [SAM2, N-(2′-aminoethyl)-N-benzylnaphthalene-1-sulfonamide Hydrogen Chloride], the “New length (cm)” value in assay [5] is recorded as 0.191 cm. Moreover, the “Relative growth (cm)” value in assay [5] (setting [10]) was −0.03046.
The corresponding values for `CCCCCCOc1ccc(S(=O)(=O)NCCN)cc1.Cl` [JAR72, N-(2′-aminoethyl)-4-hexoxybenzene-1-sulfonamide Hydrogen Chloride] are 0.195 cm and −0.1909.
Take `CN(CCN)S(=O)(=O)c1cccc2ccccc12.Cl` [Compound E5, N-methyl-N-naphthylsulfonyl-1,2-ethanediamine Hydrochloric Acid Salt]: the “Hypocotyl growth promotion relative to A1” value in assay [5] was “biggest effect”. Also, the “Root growth activity relative to A1” value in assay [9] is reported as “biggest effect”.
